Reference: patent EP1019392B1, “TRICYCLIC AMIDES USEFUL FOR INHIBITION OF G-PROTEIN FUNCTION AND FOR TREATMENT OF PROLIFERATIVE DISEASES” (SCHERING CORPORATION, priority 1995, dated 1997)
Structures can show the parent of a compound that is named as a salt. Where two headings read alike, the source gives them in different places.

Experiments:
[1] = target: T1, farnesyl protein transferase (FPT) (Rattus norvegicus, UniProt Q02293+Q04631); test: In vitro enzyme assay: inhibition of farnesyl protein transferase (transfer of [3H]farnesyl to Ras-CVLS); type: biochemical; settings: partially purified rat brain FPT, Ras-CVLS
T1 construct: were partially purified from rat brain by ammonium sulfate fractionation followed by Q-Sepharose; from tissue; host or cells: rat brain
Protocol: • 1. In vitro enzyme assays: Inhibition of farnesyl protein transferase and geranylgeranyl protein transferase. […] Human farnesyl protein transferase was also expressed in E. coli, using cDNA clones encoding both the a and b subunits. […] Human farnesyl protein transferase was partially-purified from the soluble protein fraction of E. coli as described above. […] Two forms of val^12-Ha-Ras protein were prepared as substrates for these enzymes, differing in their carboxy terminal sequence. One form terminated in cysteine-valine-leucine-serine (Ras-CVLS) the other in cystein-valine-leucine-leucine (Ras-CVLL). Ras-CVLS is a substrate for the farnesyl protein transferase while Ras-CVLL is a substrate for geranylgeranyl protein transferase I. The cDNAs encoding these proteins were constructed so that the proteins contain an amino-terminal extension of 6 histidine residues. Both proteins were expressed in Escherichia coli and purified using metal chelate affinity chromatography. The radiolabelled isoprenyl pyrophosphate substrates, [^3H]farnesyl pyrophosphate and [^3H]geranylgeranyl pyrophosphate, were purchased from DuPont/New England Nuclear. […] The reaction was allowed to proceed for 30 minutes at room temperature and then stopped with 0.5 ml of 4% sodium dodecyl sulfate (SDS) followed by 0.5 ml of cold 30% TCA. Samples were allowed to sit on ice for 45 minutes and precipitated Ras protein was then collected on GF/C filter paper mats using a Brandel cell harvester. […] Percent inhibition was calculated relative to the DMSO vehicle control. The geranylgeranyl protein transferase I assay was essentially identical to the farnesyl protein transferase assay described above, with two exceptions: [^3H]geranylgeranylpyrophosphate replaced farnesyl pyrophosphate as the isoprenoid donor and Ras-CVLL was the protein acceptor. […] Cell-Based Assay: Transient expression of val^12-Ha-Ras-CVLS and val^12-Ha-Ras-CVLL in COS monkey kidney cells: Effect of farnesyl protein transferase inhibitors on Ras processing and on disordered cell growth induced by transforming Ras. COS monkey kidney cells were transfected by electroporation with the plasmid pSV-SPORT (Gibco/BRL) containing a cDNA insert encoding either Ras-CVLS or Ras-CVLL, leading to transient overexpression of a Ras substrate for either farnesyl protein transferase or geranylgeranyl protein transferase I, respectively (see above). Following electroporation, cells were plated into 6-well tissue culture dishes containing 1.5 ml of Dulbecco's-modified Eagle's media (GIBCO, Inc.) supplemented with 10% fetal calf serum and the appropriate farnesyl protein transferase inhibitors. After 24 hours, media was removed and fresh media containing the appropriate drugs was re-added. 48 hours after electroporation cells were examined under the microscope to monitor disordered cell growth induced by transforming Ras. Cells expressing transforming Ras become more rounded and refractile and overgrow the monolayer, reminiscent of the transformed phenotype. Cells were then photographed, washed twice with 1 ml of cold phosphate-buffered saline (PBS) and removed from the dish by scraping with a rubber policeman into 1 ml of a buffer containing 25 mM Tris, pH 8.0; 1 mM ethylenediamine tetraacetic acid; 1 mM phenylmethylsulfonyl fluoride; […] leupeptin; and 0.1 mM pepstatin. Cells were lysed by homogenization and cell debris was removed by centrifugation at 2000 x g for 10 min. Cellular protein was precipitated by addition of ice-cold trichloroacetic acid and redissolved in […] of SDS-electrophoresis sample buffer. […] Proteins resolved on the gels were electroblotted onto nitrocellulose membranes for immunodetection. […] After washing, membranes were incubated for one hour at room temperature with a 1:5000 dilution of secondary antibody, rabbit anti-rat IgG conjugated to horseradish peroxidase, in PBS containing 1% fetal calf serum.

[2] = system: Ras-CVLS processing in COS monkey kidney cells; test: COS cell assay: inhibition of Ras-CVLS processing (Western blot); type: cell-based
From the text: • 1. In vitro enzyme assays: Inhibition of farnesyl protein transferase and geranylgeranyl protein transferase. Both farnesyl protein transferase (FPT) and geranylgeranyl protein transferase (GGPT) I were partially purified from rat brain by ammonium sulfate fractionation followed by Q-Sepharose (Pharmacia, Inc.) anion exchange chromatography essentially as described by Yokoyama et al (Yokoyama, K., et al., (1991), A protein geranylgeranyltransferase from bovine brain: Implications for protein prenylation specificity, Proc. Natl. Acad. Sci USA 88: 5302-5306, the disclosure of which is incorporated herein by reference thereto). Human farnesyl protein transferase was also expressed in E. coli, using cDNA clones encoding both the a and b subunits. The methods used were similar to those published (Omer, C. et al., (1993), Characterization of recombinant human farnesyl protein transferase: Cloning, expression, farnesyl diphosphate binding, and functional homology with yeast prenyl-protein transferases, Biochemistry 32:5167-5176). Human farnesyl protein transferase was partially-purified from the soluble protein fraction of E. coli as described above. […] Two forms of val^12-Ha-Ras protein were prepared as substrates for these enzymes, differing in their carboxy terminal sequence. One form terminated in cysteine-valine-leucine-serine (Ras-CVLS) the other in cystein-valine-leucine-leucine (Ras-CVLL). Ras-CVLS is a substrate for the farnesyl protein transferase while Ras-CVLL is a substrate for geranylgeranyl protein transferase I. The cDNAs encoding these proteins were constructed so that the proteins contain an amino-terminal extension of 6 histidine residues. Both proteins were expressed in Escherichia coli and purified using metal chelate affinity chromatography. The radiolabelled isoprenyl pyrophosphate substrates, [^3H]farnesyl pyrophosphate and [^3H]geranylgeranyl pyrophosphate, were purchased from DuPont/New England Nuclear. Several methods for measuring farnesyl protein transferase activity have been described (Reiss et al 1990, Cell 62: 81; Schaber et al 1990, J. Biol. Chem. 265: 14701; Manne et al 1990, PNAS 87: 7541; and Barbacid & Manne 1993, U.S. Patent No. 5,185,248). […] The reaction was allowed to proceed for 30 minutes at room temperature and then stopped with 0.5 ml of 4% sodium dodecyl sulfate (SDS) followed by 0.5 ml of cold 30% TCA. Samples were allowed to sit on ice for 45 minutes and precipitated Ras protein was then collected on GF/C filter paper mats using a Brandel cell harvester. Filter mats were washed once with 6% TCA, 2% SDS and radioactivity was measured in a Wallac 1204 Betaplate BS liquid scintillation counter. Percent inhibition was calculated relative to the DMSO vehicle control. The geranylgeranyl protein transferase I assay was essentially identical to the farnesyl protein transferase assay described above, with two exceptions: [^3H]geranylgeranylpyrophosphate replaced farnesyl pyrophosphate as the isoprenoid donor and Ras-CVLL was the protein acceptor. […] Cell-Based Assay: Transient expression of val^12-Ha-Ras-CVLS and val^12-Ha-Ras-CVLL in COS monkey kidney cells: Effect of farnesyl protein transferase inhibitors on Ras processing and on disordered cell growth induced by transforming Ras. COS monkey kidney cells were transfected by electroporation with the plasmid pSV-SPORT (Gibco/BRL) containing a cDNA insert encoding either Ras-CVLS or Ras-CVLL, leading to transient overexpression of a Ras substrate for either farnesyl protein transferase or geranylgeranyl protein transferase I, respectively (see above). Following electroporation, cells were plated into 6-well tissue culture dishes containing 1.5 ml of Dulbecco's-modified Eagle's media (GIBCO, Inc.) supplemented with 10% fetal calf serum and the appropriate farnesyl protein transferase inhibitors. After 24 hours, media was removed and fresh media containing the appropriate drugs was re-added.

[3] = system: T24-BAG4 human bladder carcinoma cells expressing an activated H-ras gene; test: Cell Mat Assay, T24 tumor cells; type: cell-based; settings: read-out: Tumor (T-24) IC50
[4] = system: Normal human HEPM fibroblasts; test: Cell Mat Assay, normal cell mat; type: cell-based; settings: normal monolayer
[5] = system: DLD-1 (human colon carcinoma cells, ATCC # CCL 221); test: In Vivo Anti-Tumor Studies, subcutaneous DLD-1 tumors; design: species or system athymic nu/nu female mice; settings: Mus musculus, DLD-1, po, QID, 4 weeks, range over the listed compounds; for inhibition in vivo at 10 mg/kg: 10 mg/kg p.o.; for inhibition in vivo at 50 mg/kg: 50 mg/kg p.o.
From the text: Tumor cells (5 X 10^5 to 8 X 10^6) of DLD-1 (human colon carcinoma cells, ATCC # CCL 221) are innolculated subcutaneously into the flank of 5-6 week o;d athymic nu/nu female mice.

[6] = system: DLD-1-BAG human colon carcinoma cells expressing as activated K-ras gene; test: Cell Mat Assay, DLD-1 tumor cells; type: cell-based
[7] = system: SW620-BAG human colon carcinoma cells expressing an activated K-ras gene; test: Cell Mat Assay, SW620 tumor cells; type: cell-based

SMILES	IC50 ([1]; Table 1, read-out: FPT IC50)	IC50 ([3]; Homo sapiens)	IC50 ([2]; Primates, COS)	IC50 [3]	IC50 [4]	IC50 ([7]; Mat assay)	further results
O=C(Cc1cc[n+]([O-])cc1)N1CCC(C2c3ccc(Cl)c(Br)c3CCc3cc(Br)cnc32)CC1 (centres unmarked) [14A • HCl salt]	< 3.1 nM						IC50 [2]: 15 nM
NC(=O)N1CCC(CC(=O)N2CCC(C3c4ccc(Cl)cc4C=Cc4cc(Br)cnc43)CC2)CC1 (centres unmarked) [Example 1]	< 34 nM	< 1600 nM					IC50 ([4]; Homo sapiens, Fibroblast): > 25 µM; inhibition in vivo at 10 mg/kg [5]: 7 to 50%; inhibition in vivo at 50 mg/kg [5]: 35.4 to 83%
NC(=O)N1CCC(CC(=O)N2CCN([C@H]3c4ccc(Cl)c(Br)c4CCc4cc(Br)cnc43)CC2)CC1 [Example 6]	3.1 nM	< 1600 nM	40 nM				IC50 ([6]; Homo sapiens, DLD-1, Mat assay): 4 µM; IC50 ([7]; Homo sapiens, SW-620, Mat assay): 6.24 µM; inhibition in vivo at 10 mg/kg [5]: 7 to 50%; inhibition in vivo at 50 mg/kg [5]: 35.4 to 83%
O=C(Cc1cc[n+]([O-])cc1)N1CCC(C2c3ncc(Br)cc3CCc3cc(Cl)cc(Br)c32)CC1 (centres unmarked) [Example 9B]							IC50 ([1]; FPT IC50, Table 1): 3 nM
NC(=O)N1CCC(CC(=O)N2CCC([C@@H]3c4ncc(Br)cc4CCc4cc(Cl)cc(Br)c43)CC2)CC1 [Example 10A]				< 1600 nM	8 µM	1.6 µM	
NC(=O)N1CCC(CC(=O)N2CCC(C3c4ncc(Br)cc4CCc4cc(Cl)cc(Br)c43)CC2)CC1 (centres unmarked) [Example 10B]				< 1600 nM	> 25 µM	1.6 µM	IC50 ([6]; Mat assay): 1.6 µM
O=C(Cc1cc[n+]([O-])cc1)N1CCN([C@@H]2c3ncc(Br)cc3CCc3cc(Cl)cc(Br)c32)CC1 [Example 11B]	> 95 nM			< 1600 nM	> 25 µM	18 µM	IC50 ([6]; Mat assay): 8 µM
O=C(Cc1cc[n+]([O-])cc1)N1CCC(C2c3ccc(Cl)c(Br)c3CCc3cc(Br)cnc32)CC1 (centres unmarked) [Example 14B]							IC50 ([1]; FPT IC50, Table 1): 5 nM
NC(=O)N1CCC(CC(=O)N2CCN([C@@H]3c4ccc(Cl)cc4CCc4cc(Br)cnc43)CC2)CC1 [Example 17]	43 nM	1600 nM	350 nM				IC50 ([6]; Homo sapiens, DLD-1, Mat assay): 6.25 µM; IC50 ([4]; Homo sapiens, Fibroblast): > 25 µM
O=C(Cc1cc[n+]([O-])cc1)N1CCN(C2c3ncc(Br)cc3CCc3cc(Cl)cc(F)c32)CC1 (centres unmarked) [Example 21]	8.4 nM		420 nM				
